Test results published in patent publication US20260345603A1, “PRMT5 INHIBITORS” (Beijing Earthwise Technology Co., Ltd., priority 2022, published 2026).
Where two headings read alike, the source gives them in different places.

System: HCT116^MTAP Deletion cells
Assay: Anti-proliferation assay on cells (CTG, 10 days), HCT116 MTAP Deletion
Format: cell-based
Settings: anti-proliferative activity, HCT116 MTAP Deletion, 10 days, class symbols, read-out: HCT116^MTAP Deletion GI50
Procedure: HCT116^MTAD Deletion cells were from Pharmaron (China); HCT116 cells were from ATCC; McCoy's 5A medium was purchased from Invitrogen (USA); penicillin-streptomycin and fetal bovine serum were purchased from Gibco (USA); a 384-well plate was purchased from PerkinElmer (USA); and Cell-Titer Glo reagent was purchased from Promega (USA).
Compound dissolution: All the compounds were dissolved in dimethyl sulfoxide (DMSO) and then stored. The compounds were stored at room temperature in a dry condition for 3 months for short term storage or at −20 °C for long term storage.
The cells were cultured strictly in accordance with ATCC requirements. The cell culture medium (McCoy's 5A medium+10% fetal bovine serum+1% penicillin+streptomycin) was transferred to a 15 mL centrifuge tube and centrifuged at 1000 rpm for 5 min. The supernatant was removed. The cells were resuspended with complete culture medium, inoculated into a culture dish at the required density, and cultured in an incubator at 37 °C, 95% humid air, and 5% carbon dioxide. The culture medium was replenished or the cells were passaged every 2-3 days depending on the cell growth condition.
When the confluency of cells in the culture dish reached about 90%, the cells were washed twice with PBS, and then treated with trypsin to become single cells. The cells were counted, and 40 μl of the cells was inoculated into each well of a 384-well plate (50 cells/well). The plate was equilibrated at 37 °C and 5% carbon dioxide for 10 to 15 minutes. The compounds were injected into the 384-well plate using Echo550, and positive control and negative control (0.1% DMSO) were set up. Each compound was subjected to a 3-fold dilution, resulting in 10 concentration gradients, in duplicate, and the content of DMSO was 0.1%. The 384-well plate was incubated in a cell culture incubator for 10 days.
Then, 40 μl of cell proliferation assay reagent (CTG) was added to the 384-well plate, and the plate was shaken to mix well. Then, the 384-well plate was incubated at 37 °C and 5% carbon dioxide in the dark for 30 minutes. The data were read using the Envision multifunctional microplate reader. […] According to the different drug concentrations and their corresponding inhibition rates, the GI50 curve was drawn using GraphPad 8.0 software. The data were analyzed, and the final GI50 value was obtained.

Row | Structure (SMILES) | GI50 (Homo sapiens, HCT-116, 240 h) | GI50
1 | CN(C(=O)C(=O)Nc1cnc(N)c2c1cnn2C)C1COCc2c(F)cc(Cl)cc21 (racemic) [Compound 155] | 10 to 100 nM | –
2 | CN(C(=O)C(=O)Nc1cnc(N)c2c1cnn2C)C1COCc2cc(-c3ccnn3C)ccc21 (racemic) [Compound 156] | ≤ 10 nM | –
3 | Cc1cc(NC(=O)C(=O)N(C)C2COCc3cc(C4=CCOCC4)ccc32)cnc1N (racemic) [Compound 162] | 100 to 1000 nM | –
4 | CN(C(=O)C(=O)Nc1cnc(N)c2c1cnn2C)C1COCc2c1ccc(Cl)c2Cl (racemic) [Compound 168] | ≤ 10 nM | –
5 | CN(C(=O)C(=O)Nc1cnc(N)c2c1cnn2C)C1COc2cc(F)c(F)cc21 (racemic) [Compound 172] | 10 to 100 nM | –
6 | CN(C(=O)C(=O)Nc1cnc(N)c2c1cnn2C)C1COc2cc(Br)ccc21 (racemic) [Compound 180] | ≤ 10 nM | –
7 | Cc1ncc(-c2ccc3c(c2)COCC3N(C)C(=O)C(=O)Nc2cnc(N)c3c2cnn3C)s1 (racemic) [Compound 181] | ≤ 10 nM | –
8 | CN(C(=O)C(=O)Nc1cnc(N)c2c1cnn2C)C1COc2cc(Cl)c(Cl)cc21 (racemic) [Compound 186] | ≤ 10 nM | –
9 | CN(C(=O)C(=O)Nc1cnc(N)c2c1cnn2C)C1COc2cc(-c3ccnn3C)ccc21 (racemic) [Compound 192] | ≤ 10 nM | –
10 | Cc1ncc(-c2ccc3c(n2)COCC3N(C)C(=O)C(=O)Nc2cnc(N)c3c2cnn3C)s1 (racemic) [Compound 209] | ≤ 10 nM | –
11 | CN(C(=O)C(=O)Nc1cnc(N)c2c1cnn2C)C1COCc2cc(-c3ccc(C(F)(F)F)nc3)ccc21 (racemic) [Compound 221] | ≤ 10 nM | –
12 | CN(C(=O)C(=O)Nc1cnc(N)c2c1cnn2C)C1COCc2cc(-c3cnn(C4CC4)c3)ccc21 (racemic) [Compound 223] | ≤ 10 nM | –
13 | CN(C(=O)C(=O)Nc1cnc(N)c2c1cnn2C)C1COCc2cc(-c3cnn(C(F)(F)F)c3)ccc21 (racemic) [Compound 231] | ≤ 10 nM | –
14 | CN(C(=O)C(=O)Nc1cnc(N)c2c1cnn2C)C1COCc2cc(-c3ccnn3C3CC3)ccc21 (racemic) [Compound 241] | ≤ 10 nM | –
15 | CCC(C)N(Cc1ccc(C(F)(F)F)cn1)C(=O)C(=O)Nc1cnc(N)c2c1cnn2C (racemic) [Example 46-P1] | 10 to 100 nM | –
16 | CCC(C)N(Cc1ccc(C(F)(F)F)cn1)C(=O)C(=O)Nc1cnc(OC)c(C(N)=O)c1 (single isomer, unassigned) [Example 5-P1] | 10 to 100 nM | –

Row | Structure (SMILES) | GI50 (Homo sapiens, HCT-116, 240 h) | GI50
17 | Cc1cc(NC(=O)C(=O)N(Cc2ccc(C(F)(F)F)cn2)C2CCCOC2)cnc1N (single isomer, unassigned) [Example 14-P1] | 100 to 1000 nM | –
18 | Cc1cc(NC(=O)C(=O)N(Cc2ccc(C(F)(F)F)cn2)C(C)c2cscn2)cnc1N (single isomer, unassigned) [Example 19-P1] | 10 to 100 nM | –
19 | CCC(C)N(Cc1ccc(C(F)(F)F)cn1)C(=O)C(=O)Nc1cnc(N)c(C)c1 (single isomer, unassigned) [Example 45-P1] | 10 to 100 nM | –
20 | CN(C(=O)C(=O)Nc1cnc(N)c2c1cnn2C)C1COc2cc(C(F)(F)F)ccc21 (single isomer, unassigned) [Example 112-P2] | – | 10 to 100 nM
21 | CC1OCC(N(C)C(=O)C(=O)Nc2cnc(N)c3c2cnn3C)c2ccc(C(F)(F)F)cc21 (stereo not shown) [Compound 187] | ≤ 10 nM | –
22 | C[C@H](c1ncccn1)N(Cc1ccc(C(F)(F)F)cn1)C(=O)C(=O)Nc1cnc(N)c2c1COC2 [Example 2] | 10 to 100 nM | –
23 | Cc1cc(NC(=O)C(=O)N(C)Cc2ccc(C(F)(F)F)cn2)cnc1N [Example 3] | 1000 to 10000 nM | –
24 | Cn1ncc2c(NC(=O)C(=O)N(Cc3ccc(C(F)(F)F)cn3)CC3CCC3)cnc(N)c21 [Example 4] | 10 to 100 nM | –
25 | Cc1cc(/C=C/C(=O)N(Cc2ccc(C(F)(F)F)cn2)[C@H](C)c2ncccn2)cnc1N [Example 6] | > 10000 nM | –
26 | Cc1cc(C2CC2C(=O)N(Cc2ccc(C(F)(F)F)cn2)[C@H](C)c2ncccn2)cnc1N (stereo partly shown) [Example 7] | > 10000 nM | –
27 | CCC(C)N(Cc1ccc(C(F)(F)F)cn1)C(=O)C(=O)Nc1cnc(N)c(C)c1 (stereo not shown) [Example 8] | 10 to 100 nM | –
28 | COC[C@H](C)N(Cc1ccc(C(F)(F)F)cn1)C(=O)C(=O)Nc1cnc(N)c(C)c1 [Example 9] | 10 to 100 nM | –
29 | CCC(C)N(Cc1ccc(C(F)(F)F)cn1)C(=O)C(=O)Nc1cnc(N)c2c1COC2C (stereo not shown) [Example 10] | 10 to 100 nM | –
30 | Cc1cc(NC(=O)C(=O)N(Cc2ccc(C(F)(F)F)cn2)C2CCCC2)cnc1N [Example 11] | 100 to 1000 nM | –
31 | Cc1cc(NC(=O)C(=O)N(Cc2ccc(C(F)(F)F)cn2)C2CC2)cnc1N [Example 12] | 100 to 1000 nM | –
